Marks after values point to notes of the source that are not given here.
How the values were obtained:
in vivo = experiment: in vivo; design: species or system SD rats; details: rat; for AUC(0-inf) / AUC(0-t): SD
Protocol: In this experiment, a total of 24 rats (12 of each sex) were provided by Beijing Vitong Lever Experimental Animal Technology Co., Ltd. Each animal was identified using a tail mark and had its health status confirmed by Suzhou WuXi AppTec’s veterinary team before use. The animal room was monitored for temperature and humidity, with data recorded daily to ensure that the relative humidity was maintained at 40%–70% and the temperature was between 20–26°C. The lighting adopted a 12-hour alternating light and dark mode. Regular growth feed was provided daily, and animals had ready access to water. […] Post-administration, the condition of the animals was observed and documented before and after each blood collection point. The ensemble of 24 SD rats was divided into four groups, with three specimens of each gender in each group. Animals in group 1 received a single intravenous bolus of 0.2 mg/kg BGM0504, and groups 2, 3, and 4 received a single subcutaneous injection of 0.3, 1.5, and 7.5 mg/kg BGM0504 in 20 mM citrate buffered solution (pH=7.0±0.2), respectively. Blood samples were collected for pharmacokinetic analysis at specific time points (0.5, 1, 2, 4, 8, 12, 24, 48, 72, 96, and 120 hours) before and after dosing. At the same time, blood glucose levels were measured before and at 1, 4, 8, 12, and 24 hours after dosing. The collected blood samples were transferred to labeled commercial sample tubes containing K2-EDTA, centrifuged, and plasma was retrieved; some were used for analysis, and the other part was reserved as a backup. Plasma was transferred to pre-cooled centrifuge tubes, snap-frozen in dry ice, and stored in an ultra-low temperature freezer at -60°C or lower until transported to the Drug Evaluation Department of WuXi AppTec Shanghai Drug Development Co., Ltd. for analysis.

db/db mice = experiment: Blood glucose reducing effect in db/db mice model; assay type: in vivo; details: for Insulin in serum: 31 days, ELISA, three days after last dose, Mean±SD, n=11
Protocol: In contrast, the db/db-ND group received only the drug vehicle via subcutaneous injection. Three parallel experimental groups were established to explore the dose-dependent characteristics of BGM0504 in db/db mice: a low-dose group (0.05 mg/kg), a standard dose group (0.15 mg/kg), and a high-dose group (0.5 mg/kg), each comprising 11 db/db mice. Subsequent administrations were conducted every 3 days following the initial administration, and the experiment spanned 31 days. […] To thoroughly investigate the dose dependence of BGM0504 in db/db mice, we established additional dose groups, including a low-dose group at 0.05 mg/kg and a high-dose group at 0.5 mg/kg. Each experimental group comprised 11 db/db mice. Following the initial administration, subsequent doses were administered every 3 days, spanning a total of 31 days. Throughout this study, we meticulously observed and analyzed a spectrum of parameters encompassing changes in body weight, food intake, non-fasting blood glucose post-initial administration. In this experimental endeavor, we engaged 55 male db/db mice of SPF grade, procured at 6–8 weeks, from Zhejiang Vital River Laboratory Animal Technology Co., Ltd. The animals were divided into groups based on body weight and fasting blood glucose levels. […] The groups included the db/db-ND group, the Tirzepatide-0.15 mg/kg group, the BGM0504-0.05 mg/kg group, the BGM0504-0.15 mg/kg group, and the BGM0504-0.5 mg/kg group, each comprising 11 mice. […] Non-fasting blood glucose levels were measured at 0, 1, 2, 3, 6, 24, 48, and 72 hours post-administration. Three days after the last dose, the mice were weighed. Subsequently, a portion of non-anticoagulated whole blood was collected from the orbital venous plexus under anesthesia. Blood samples were left at room temperature for 30 minutes, then centrifuged at 5000 rpm for 5 minutes. The serum was separated and frozen at -80°C for serum insulin content testing. Serum insulin levels were measured using the enzyme-linked immunosorbent assay (ELISA) method.

[1] = molecular target: T1, Human Serum Albumin (HSA) protein (Homo sapiens, UniProt P02768); experiment: biochemical; assay type: binding
T1 construct: purified Human ALB (25–609)-His was immobilized
From the text: The buffer used was PBST (PBS with 0.02% Tween 20).

[2] = both sexes, Sprague-Dawley, iv, 0.2 mg/kg
[3] = both sexes, Sprague-Dawley, sc, 0.3 mg/kg
[4] = both sexes, Sprague-Dawley, sc, 1.5 mg/kg
[5] = both sexes, Sprague-Dawley, sc, 7.5 mg/kg

T1 sequence (P02768 25-609): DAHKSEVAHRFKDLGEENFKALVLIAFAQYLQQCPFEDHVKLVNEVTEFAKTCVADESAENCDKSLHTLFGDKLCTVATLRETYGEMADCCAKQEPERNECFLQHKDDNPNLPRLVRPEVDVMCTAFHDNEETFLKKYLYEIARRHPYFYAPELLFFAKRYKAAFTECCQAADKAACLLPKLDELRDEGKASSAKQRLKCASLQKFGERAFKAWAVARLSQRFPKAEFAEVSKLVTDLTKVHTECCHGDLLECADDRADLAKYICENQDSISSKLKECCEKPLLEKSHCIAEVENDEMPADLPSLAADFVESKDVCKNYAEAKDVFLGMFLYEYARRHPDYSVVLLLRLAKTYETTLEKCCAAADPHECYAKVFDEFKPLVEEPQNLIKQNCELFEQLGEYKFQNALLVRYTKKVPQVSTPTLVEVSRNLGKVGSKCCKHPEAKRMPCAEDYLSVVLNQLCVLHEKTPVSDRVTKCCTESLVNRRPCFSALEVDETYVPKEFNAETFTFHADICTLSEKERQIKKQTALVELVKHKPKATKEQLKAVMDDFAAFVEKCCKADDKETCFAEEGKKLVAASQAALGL

Structure (SMILES): CC[C@H](C)[C@H](NC(=O)[C@H](CC(C)C)NC(=O)[C@H](Cc1c[nH]c2ccccc12)NC(=O)[C@H](CCC(N)=O)NC(=O)[C@@H](NC(=O)[C@H](Cc1ccccc1)NC(=O)[C@H](C)NC(=O)[C@H](CCCCN)NC(=O)[C@H](CCC(N)=O)NC(=O)[C@H](C)NC(=O)[C@@H](NC(=O)[C@H](CCCCN)NC(=O)[C@H](CC(=O)O)NC(=O)[C@H](CC(C)C)NC(=O)C(C)(C)NC(=O)[C@@H](NC(=O)[C@H](CO)NC(=O)[C@H](Cc1ccc(O)cc1)NC(=O)[C@H](CC(=O)O)NC(=O)[C@H](CO)NC(=O)[C@@H](NC(=O)[C@H](Cc1ccccc1)NC(=O)[C@@H](NC(=O)CNC(=O)[C@H](CCC(=O)O)NC(=O)C(C)(C)NC(=O)[C@@H](N)Cc1ccc(O)cc1)[C@@H](C)O)[C@@H](C)O)[C@@H](C)CC)[C@@H](C)CC)C(C)C)C(=O)N[C@@H](C)C(=O)NCC(=O)NCC(=O)N1CCC[C@H]1C(=O)N[C@@H](CO)C(=O)N[C@@H](CO)C(=O)NCC(=O)N[C@@H](C)C(=O)N1CCC[C@H]1C(=O)N1CCC[C@H]1C(=O)N1CCC[C@H]1C(=O)N[C@@H](CO)C(=O)N[C@@H](CCCCNC(=O)COCCOCCOCCNC(=O)COCCOCCOCCNC(=O)CC[C@H](NC(=O)CCCCCCCCCCCCCCCCCCC(=O)O)C(=O)O)C(N)=O [BGM0504]
- AUC(0-inf) (in vivo; both sexes, iv, 0.2 mg/kg): 50000 ng·h/mL
- AUC(0-inf) (in vivo; both sexes, sc, 0.3 mg/kg): 33400 ng·h/mL
- AUC(0-t) (in vivo; both sexes, sc, 0.3 mg/kg): 33200 ng·h/mL
- AUC(0-inf) (in vivo; both sexes, sc, 1.5 mg/kg): 154000 ng·h/mL
- AUC(0-t) (in vivo; both sexes, sc, 1.5 mg/kg): 153000 ng·h/mL
- AUC(0-inf) (in vivo; both sexes, sc, 7.5 mg/kg): 643000 ng·h/mL
- AUC(0-t) (in vivo; both sexes, sc, 7.5 mg/kg): 637000 ng·h/mL
- C0 (in vivo; [2]): 4650 ± 411 ng/mL
- Vd (in vivo; [2]): 0.0648 ± 0.0058 L/kg
- clearance (in vivo; [2]): 4.08 ± 0.618 mL/h/kg
- half-life (in vivo; [2]): 13.6 ± 2.3 h
- Cmax (in vivo; [3]): 814 ± 111 ng/mL
- Tmax (in vivo; [3]): 24 h
- bioavailability (in vivo; [3]): 44.5%
- half-life (in vivo; [3]): 14.5 ± 1.4 h
- Cmax (in vivo; [4]): 3830 ± 705 ng/mL
- Tmax (in vivo; [4]): 24 h
- bioavailability (in vivo; [4]): 41.1%
- half-life (in vivo; [4]): 13.4 ± 1.5 h
- Cmax (in vivo; [5]): 15100 ng/mL
- Tmax (in vivo; [5]): 20 ± 6.2 h
- bioavailability (in vivo; [5]): 34.3%
- half-life (in vivo; [5]): 14.7 ± 2.4 h
- AUC0-24 (in vivo; iv, 0.2 mg/kg): 38800 ng·h/mL
- AUC0-last (in vivo; iv, 0.2 mg/kg): 49800 ng·h/mL
- AUC0–last (as headed in Table 1) (in vivo; iv, 0.2 mg/kg): 38,800 ± 5150 ng h/mL
- AUC0–∞ (as headed in Table 1) (in vivo; iv, 0.2 mg/kg): 49,800 ± 7470 ng h/mL
- AUC0-24 (in vivo; sc, 0.3 mg/kg): 14100 ng·h/mL
- AUC0–last (as headed in Table 1) (in vivo; sc, 0.3 mg/kg): 14,100 ± 2440 ng h/mL
- AUC0–∞ (as headed in Table 1) (in vivo; sc, 0.3 mg/kg): 33,200 ± 6190 ng h/mL
- AUC0-24 (in vivo; sc, 1.5 mg/kg): 63900 ng·h/mL
- AUC0–last (as headed in Table 1) (in vivo; sc, 1.5 mg/kg): 63,900 ± 11,400 ng h/mL
- AUC0–∞ (as headed in Table 1) (in vivo; sc, 1.5 mg/kg): 153,000 ± 27,700 ng h/mL
- AUC0-24 (in vivo; sc, 7.5 mg/kg): 269000 ng·h/mL
- AUC0–last (as headed in Table 1) (in vivo; sc, 7.5 mg/kg): 269,000 ± 43,000 ng h/mL
- AUC0–∞ (as headed in Table 1) (in vivo; sc, 7.5 mg/kg): 637,000 ± 88,700 ng h/mL
- Insulin in serum (db/db mice; 0.05 mg/kg s.c. every 3 days): 37649.0±3597.0^a nIU/mL
- Insulin in serum (db/db mice; 0.15 mg/kg s.c. every 3 days): 30897.0±5634.0^a nIU/mL
- Insulin in serum (db/db mice; 0.5 mg/kg s.c. every 3 days): 32774.0±6290.0^a nIU/mL
- body weight and food intake (db/db mice; early stages of administration): acute decline in body weight and food intake
- non-fasting blood glucose within 72 h after first administration, vs db/db-ND group (db/db mice; s.c., Tirzepatide 0.15 mg/kg, BGM0504 0.05, 0.15, 0.5 mg/kg, n = 11): significant blood glucose suppression
- Kd [1]: 73 nM

Source: publication PMC11271627, “Molecular dynamics-guided optimization of BGM0504 enhances dual-target agonism for combating diabetes and obesity” (Scientific Reports, 2024)
